Molecular target: angiotensin-converting enzyme (ACE) (Homo sapiens, UniProt P12821)
Experiment: BioSelact on-line ACE inhibitor bioassay (Kiadis)
Assay type: biochemical
Settings: determined by the BioSelect method of Kiadis of aqueous extracts of the fat+cell fraction
Protocol: Supernatants of whole fermentations, whey liquids, chloroform and aqueous extracts from fat/cell fractions were all pH adjusted before analysis. First the solutions were adjusted to pH 3. After centrifugation the precipitate was removed. During a second step the pH was adjusted to 7.5 (pH of bioassay). Again precipitate was removed from the solution after centrifugation. The remaining supernatants were used for BioSelact analysis.
250 mg of fat/cell preparation was extracted with 250 μl MilliQ. The solution was positioned on a flat shaker for 2 hours at room temperature. The fat/cell fraction was removed after extraction by centrifugation.
During the first step of the BioSelact analysis, the aqueous solutions were analyzed by applying a general chromatographic gradient: 5-95% MeOH/0.05% TFA in 75 min. For these general analyses a Phenomenex, LUNA C18(2), 5 μm, 2*250 mm analytical column was used. The chromatographic separation was carried out at a flow rate of 0.2 ml/min at ambient temperature. The injection volume was 250 μl. The organic modifier concentration in the Liquid Chromatography (LC) effluent was decreased to bioassay compatible levels by performing continuous dilution using the BioGradient composition from Kiadis. […]
After completing the first general chromatographic ‘sweep’, the presence of bioactivity in each sample was carefully assessed by the Kiadis ACE inhibitor assay. […]

Chain of angiotensin-converting enzyme (ACE) (P12821 30-1306, species assumed): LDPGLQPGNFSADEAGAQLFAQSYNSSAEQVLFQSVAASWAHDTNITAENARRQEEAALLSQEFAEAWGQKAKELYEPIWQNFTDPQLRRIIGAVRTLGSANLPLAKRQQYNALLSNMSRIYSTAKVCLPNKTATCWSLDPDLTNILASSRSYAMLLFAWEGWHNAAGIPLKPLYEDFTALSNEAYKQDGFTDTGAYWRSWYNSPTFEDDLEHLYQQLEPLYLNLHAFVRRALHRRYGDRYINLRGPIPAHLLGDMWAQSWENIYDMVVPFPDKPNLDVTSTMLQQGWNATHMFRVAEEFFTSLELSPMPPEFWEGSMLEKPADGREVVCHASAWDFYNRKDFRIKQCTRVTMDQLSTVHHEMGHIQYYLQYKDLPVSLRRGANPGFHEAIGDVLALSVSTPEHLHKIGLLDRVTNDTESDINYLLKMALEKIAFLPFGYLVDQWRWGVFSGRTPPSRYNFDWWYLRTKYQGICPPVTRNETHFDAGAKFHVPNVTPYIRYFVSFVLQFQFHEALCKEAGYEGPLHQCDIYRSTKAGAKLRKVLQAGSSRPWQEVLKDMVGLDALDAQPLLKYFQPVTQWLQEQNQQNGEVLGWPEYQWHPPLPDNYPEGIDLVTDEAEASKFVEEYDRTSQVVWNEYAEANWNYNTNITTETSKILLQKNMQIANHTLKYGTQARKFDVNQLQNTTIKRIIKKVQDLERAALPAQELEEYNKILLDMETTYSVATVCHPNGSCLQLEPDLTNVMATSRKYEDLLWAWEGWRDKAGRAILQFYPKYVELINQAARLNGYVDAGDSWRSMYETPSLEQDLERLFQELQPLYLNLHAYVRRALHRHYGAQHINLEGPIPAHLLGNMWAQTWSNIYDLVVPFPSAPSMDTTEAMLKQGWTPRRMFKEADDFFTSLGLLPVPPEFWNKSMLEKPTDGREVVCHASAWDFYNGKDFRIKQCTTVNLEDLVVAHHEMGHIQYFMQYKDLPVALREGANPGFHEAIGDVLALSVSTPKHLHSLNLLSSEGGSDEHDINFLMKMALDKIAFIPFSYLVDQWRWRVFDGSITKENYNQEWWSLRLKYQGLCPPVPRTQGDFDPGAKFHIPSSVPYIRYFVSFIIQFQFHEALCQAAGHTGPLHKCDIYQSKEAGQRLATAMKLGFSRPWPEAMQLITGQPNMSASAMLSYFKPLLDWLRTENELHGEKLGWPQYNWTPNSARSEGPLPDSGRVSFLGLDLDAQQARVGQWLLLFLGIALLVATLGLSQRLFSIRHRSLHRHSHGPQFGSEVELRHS

- Relative inhibition (relative ACE inhibitory activity): 0.7%
Substance: Ile-Pro-Pro [IPP]

— patent publication US20080207529A1, “Isolated Dipeptides with Ace Inhibitor Effect” (CHR. HANSEN A/S, priority 2005, published 2008)
